{
  "source": "patent US7517657B2",
  "about": "“Peptides for detecting anti-double stranded DNA antibody and uses thereof” (Albert Einstein College of Medicine of Yeshiva University, priority 1995, dated 2009)",
  "note": "Ends that are not written are not given here.",
  "data": [
    {"test_system": "52b3 anti-dsDNA monoclonal antibody", "assay": "ELISA binding of monoclonal antibody 52b3 to phage clones", "parameters": "species or system mouse", "conditions": "52b3 selected phage, Table 3", "protocol": "(§1) FIG. 1 is comprised of FIGS. 1A, 1B and 1C, and depicts the binding by Enzyme Linked ImmunoSorbent Assay of monoclonal antibodies R4A (FIG. 1A), 95 (FIG. 1B) and 52b3 (FIG. 1C) to phage clones. In each figure, the shaded columns are R4A-selected phage and unshaded columns are 52b3-selected phage.\n(§2) Binding of antibodies to phage was determined by Enzyme-Linked ImmunoSorbent Assay (ELISA). Microtiter plates (Becton Dickinson, Lincoln Park, N.J.) were coated with 50 μl of antibody (1 μg/ml unless otherwise specified) in TBS (Tris/10 mM HCl pH 7.5, 150 mM NaCl) overnight at 4° C. Plates were washed 3 times with TBS/0.05% TWEEN® 20. Approximately 2.5×10^10 purified phage in 50 μl TBS were added to each well, incubated for 2 hours at 37° C., washed, and then were blocked with 150 μl of TBS/2% BSA for 1 hour at 37° C. Plates were incubated with 50 μl of a 1:4000 dilution in TBS of biotinylated sheep antibody to M13 phage (5′->3′, Inc., Boulder, Colo.) for 1 hour at 37° C. Plates were washed again and incubated with a 1:4000 dilution of […] streptavidin (Southern Biotech. Assoc. Inc., Birmingham, Ala.) and developed with Sigma-104 substrate tablets (Sigma Chemical Co.). Optical density was read at 405 nm.", "values": [
      {"substance": "C G V D G R W P R W (CGVDGRWPRW; displayed on phage; peptide (1)..(10) randomly-selected sequence obtained by biopanning a decapeptide library with 52b3) [φB23]", "Binding O.D. 405 nm": 1.5},
      {"substance": "D G E W P R E G W S (DGEWPREGWS; displayed on phage; peptide (1)..(10) randomly-selected sequence obtained by biopanning a decapeptide library with 52b3) [φB56]", "Binding O.D. 405 nm": 1.6},
      {"substance": "E D L E G E W P M R (EDLEGEWPMR; displayed on phage; peptide (1)..(10) randomly-selected sequence obtained by biopanning a decapeptide library with 52b3) [φB22]", "Binding O.D. 405 nm": 1.5},
      {"substance": "L L D D G F W P R V (LLDDGFWPRV; displayed on phage; peptide (1)..(10) randomly-selected sequence obtained by biopanning a decapeptide library with 52b3) [φB25]", "Binding O.D. 405 nm": 1.5},
      {"substance": "R H E D G D W P R V (RHEDGDWPRV; not fully specified (N-terminus, C-terminus)) [φB11]", "Binding O.D. 405 nm": 1.4},
      {"substance": "S C Y Q S Y P G E C (SCYQSYPGEC; displayed on phage; peptide (1)..(10) randomly-selected sequence obtained by biopanning a decapeptide library with 52b3) [φB52]", "Binding O.D. 405 nm": 1.8},
      {"substance": "S L D E L D W D S M (SLDELDWDSM; displayed on phage; peptide (1)..(10) randomly-selected sequence obtained by biopanning a decapeptide library with 52b3) [φB1]", "Binding O.D. 405 nm": 1.4},
      {"substance": "S L I S D E W P R W (SLISDEWPRW; displayed on phage; peptide (1)..(10) randomly-selected sequence obtained by biopanning a decapeptide library with 52b3) [φB24]", "Binding O.D. 405 nm": 1.3},
      {"substance": "T W C P V W I W D C (TWCPVWIWDC; displayed on phage; peptide (1)..(10) randomly-selected sequence obtained by biopanning a decapeptide library with 52b3) [φB16]", "Binding O.D. 405 nm": 1.0},
      {"substance": "V L I C W D G C E T (VLICWDGCET; displayed on phage; peptide (1)..(10) randomly-selected sequence obtained by biopanning a decapeptide library with 52b3) [φB17]", "Binding O.D. 405 nm": 1.6},
      {"substance": "W D C Y V C R L E L (WDCYVCRLEL; displayed on phage; peptide (1)..(10) randomly-selected sequence obtained by biopanning a decapeptide library with 52b3) [φB21]", "Binding O.D. 405 nm": 1.2}
    ]},
    {"test_system": "R4A anti-dsDNA monoclonal antibody", "assay": "ELISA binding of monoclonal antibody R4A to phage clones", "parameters": "species or system mouse", "conditions": "R4A selected phage, Table 2", "protocol": "as §1, §2", "values": [
      {"substance": "D W D Y G A L M W A (DWDYGALMWA; displayed on phage; peptide (1)..(10) randomly-selected sequence obtained by biopanning a decapeptide library with R4A) [φ7-3]", "Binding O.D. 405 nm": 1.1},
      {"substance": "D W E Y S V W L S N (DWEYSVWLSN; not fully specified (N-terminus, C-terminus)) [φ1-3]", "Binding O.D. 405 nm": 1.3},
      {"substance": "F S D C Y H S G C P [φ1-1]", "Binding O.D. 405 nm": 1.5},
      {"substance": "L Y F E D Y R C E L (LYFEDYRCEL; displayed on phage; peptide (1)..(10) randomly-selected sequence obtained by biopanning a decapeptide library with R4A) [φ7-6]", "Binding O.D. 405 nm": 1.2},
      {"substance": "S T E H S E A D L W (STEHSEADLW; displayed on phage; peptide (1)..(10) randomly-selected sequence obtained by biopanning a decapeptide library with R4A) [φ1-2]", "Binding O.D. 405 nm": 0.7}
    ]}
  ]
}
